Measurements reported in patent publication US11753408B2, “Compounds and method for blocking transmission of malarial parasite” (The United States of America, as represented by the …, priority 2016, dated 2023).

What was measured:
[1] = test system: Asexual parasites of P. falciparum strain 3D7; experiment: In vitro drug activity on asexual parasites (SYBR Green assay); assay type: cell-based, Plasmodium falciparum
In short: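 3D7 parasites at 0.5% parasitemia and 2% hematocrit were exposed to drugs (DMSO ≤0.5%) for 72 h under standard culture conditions, in duplicate. After freeze-thaw lysis, SYBR Green I lysis buffer was added for 30 min at room temperature, and fluorescence was read at 490/520 nm.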

mTOR = mTOR (Homo sapiens, UniProt P42345); experiment: mTOR activity (no method described); assay type: biochemical
[2] = Microsomal stability (rat); assay type: in vitro ADME; conditions: rat microsomes
Solubility at pH 7.4 = assay type: physicochemical
PAMPA permeability = assay type: in vitro ADME

| SMILES | EC50 [1] | mTOR (mTOR) | Microsomal Stability (rat) T1/2 [2] | Sol @ pH 7.4 (Solubility at pH 7.4) | PAMPA Permeability (PAMPA permeability) |
| --- | --- | --- | --- | --- | --- |
| CN(C)CCc1ccc(-c2ccc3ncc4ccc(=O)n(-c5ccc(C(=O)NC6CC6)cc5)c4c3c2)cc1 [Compound 241] | 335 nM | 6.061 µM | >30 min | >74 ug/mL | 18.6 ×10⁻⁶ cm/s |
| O=C(c1ccc(-n2c(=O)ccc3cnc4ccc(-c5ccc6c(c5)CNC6)cc4c32)cc1)N1CCOCC1 [Compound 242] | 489 nM | 0.373 µM | >30 min | >74 ug/mL | < 1 ×10⁻⁶ cm/s |
| CCN(CC)Cc1ccc(-c2ccc3ncc4ccc(=O)n(-c5ccc(C(=O)NC6CC6)cc5)c4c3c2)cc1 [Compound 243] | 677 nM | 14.6 µM | >30 min | >76 ug/mL | 382 ×10⁻⁶ cm/s |
| CN1Cc2ccc(-c3ccc4ncc5ccc(=O)n(-c6ccc(C(=O)N7CCOCC7)cc6)c5c4c3)cc2C1 [Compound 244] | 1640 nM | 7.873 µM | >30 min | >76 ug/mL | 216 ×10⁻⁶ cm/s |
| N#Cc1ccc2ncc3ccc(=O)n(-c4ccc(C(=O)N5CCOCC5)cc4)c3c2c1 [Compound 245] | 3820 nM | 10.41 µM | >30 min | >61 ug/mL | 11.7 ×10⁻⁶ cm/s |
| CC(C)(N)c1ccc(-c2ccc3ncc4ccc(=O)n(-c5ccc(C(=O)NC6CC6)cc5)c4c3c2)cc1 [Compound 246] | 1260 nM | 0.6459 µM | >30 min | >72 ug/mL | 1.5 ×10⁻⁶ cm/s |
| CCN(CC)CCNC(=O)c1ccc(-n2c(=O)ccc3cnc4ccc(-c5ccc(Cl)cc5)cc4c32)c(OC)c1 [Compound 249] | 576 nM | 14.76 µM | 7.9 min | >82 ug/mL | 1070 ×10⁻⁶ cm/s |
| COc1cc(C(=O)NC2CCN(CCN(C)C)CC2)ccc1-n1c(=O)ccc2cnc3ccc(-c4ccc(Cl)cc4)cc3c21 [Compound 250] | 549 nM | 2.911 µM | >30 min | 9.5 ug/mL | 14.3 ×10⁻⁶ cm/s |
| COc1cc(C(=O)NCCN(C)c2ccccc2)ccc1-n1c(=O)ccc2cnc3ccc(-c4ccc(Cl)cc4)cc3c21 [Compound 251] | 2370 nM | 100 µM | 1.3 min | <1 ug/mL | < 1 ×10⁻⁶ cm/s |
| COc1cc(C(=O)NCCN2CCC2)ccc1-n1c(=O)ccc2cnc3ccc(-c4ccc(Cl)cc4)cc3c21 [Compound 253] | 258 nM | 8.463 µM | >30 min | >80 ug/mL | 353 ×10⁻⁶ cm/s |
| COc1cc(C(=O)NC2CCN(CCO)CC2)ccc1-n1c(=O)ccc2cnc3ccc(-c4ccc(Cl)cc4)cc3c21 [Compound 254] | 206 nM | 3.012 µM | >30 min | 53.1 ug/mL | 5.7 ×10⁻⁶ cm/s |
| COc1cc(C(=O)NCCN2CCCCC2)ccc1-n1c(=O)ccc2cnc3ccc(-c4ccc(Cl)cc4)cc3c21 [Compound 256] | 501 nM | 8.776 µM | 3.5 min | <1 ug/mL | 664 ×10⁻⁶ cm/s |
| CCN(CC)CCNC(=O)c1ccc(-n2c(=O)ccc3cnc4ccc(-c5ccc(Cl)cc5)cc4c32)c(C)c1 [Compound 276] | 222 nM | 21.76 µM | 5.8 min | 34.8 ug/mL | 973 ×10⁻⁶ cm/s |
| CCN(CC)CCNC(=O)c1ccc(-n2c(=O)ccc3cnc4ccc(-c5ccc(Cl)cc5)cc4c32)cc1 [Compound 284] | 183 nM | 9.354 µM | 7.5 min | 36.6 ug/mL | 281 ×10⁻⁶ cm/s |
| O=C(NCC1CCOCC1)c1ccc(-n2c(=O)ccc3cnc4ccc(-c5ccc(Cl)cc5)cc4c32)cc1 [Compound 288] | 284 nM | 1.258 µM | 1.2 min | <1 ug/mL | 18.8 ×10⁻⁶ cm/s |

Now from value to molecule:

| EC50 [1] | mTOR (mTOR) | Microsomal Stability (rat) T1/2 [2] | Sol @ pH 7.4 (Solubility at pH 7.4) | PAMPA Permeability (PAMPA permeability) | SMILES |
| --- | --- | --- | --- | --- | --- |
| 52.9 nM | 0.4436 µM | >30 min | 31.6 ug/mL | < 1 ×10⁻⁶ cm/s | NCCc1ccc(-c2ccc3ncc4ccc(=O)n(-c5ccc(C(=O)NC6CC6)cc5)c4c3c2)cc1 [Compound 240] |
| 81.8 nM | 1.903 µM | 16.7 min | <1 ug/mL | 846 ×10⁻⁶ cm/s | Cc1cc(C(=O)NC2CC2)ccc1-n1c(=O)ccc2cnc3ccc(-c4ccc(Cl)cc4)nc3c21 [Compound 247] |
| 182 nM | 12.95 µM | 2.3 min | >88 ug/mL | 1040 ×10⁻⁶ cm/s | COc1cc(C(=O)NCCCN2CCC(C)CC2)ccc1-n1c(=O)ccc2cnc3ccc(-c4ccc(Cl)cc4)cc3c21 [Compound 255] |
| 60.8 nM | 2.719 µM | >30 min | >84 ug/mL | 1.5 ×10⁻⁶ cm/s | COc1cc(C(=O)NCCN2CCNCC2)ccc1-n1c(=O)ccc2cnc3ccc(-c4ccc(Cl)cc4)cc3c21 [Compound 257] |
| 52.1 nM | 5.227 µM | 21.9 min | 11.8 ug/mL | 626 ×10⁻⁶ cm/s | COc1cc(C(=O)NC2CC2)ccc1-n1c(=O)ccc2cnc3ccc(-c4ccc(F)c(O)c4)cc3c21 [Compound 272] |
| 40.6 nM | 4.9 µM | 21.4 min | 63.8 ug/mL | 1010 ×10⁻⁶ cm/s | Cc1cc(C(=O)NCCN(C)C)ccc1-n1c(=O)ccc2cnc3ccc(-c4ccc(Cl)cc4)cc3c21 [Compound 274] |
| 44.2 nM | 4.039 µM | 19.9 min | 65.6 ug/mL | 427 ×10⁻⁶ cm/s | Cc1cc(C(=O)NCCCN(C)C)ccc1-n1c(=O)ccc2cnc3ccc(-c4ccc(Cl)cc4)cc3c21 [Compound 275] |
| 82.5 nM | 3.631 µM | 3.8 min | 19.9 ug/mL | 354 ×10⁻⁶ cm/s | Cc1cc(C(=O)NCCN2CCN(C)CC2)ccc1-n1c(=O)ccc2cnc3ccc(-c4ccc(Cl)cc4)cc3c21 [Compound 277] |
| 110 nM | 8 µM | 2.6 min | >83 ug/mL | 1380 ×10⁻⁶ cm/s | Cc1cc(C(=O)NCCCN2CCCCC2)ccc1-n1c(=O)ccc2cnc3ccc(-c4ccc(Cl)cc4)cc3c21 [Compound 278] |
| 50.5 nM | 1.317 µM | 15.8 min | >84 ug/mL | 49.1 ×10⁻⁶ cm/s | Cc1cc(C(=O)NC2CCN(CCO)CC2)ccc1-n1c(=O)ccc2cnc3ccc(-c4ccc(Cl)cc4)cc3c21 [Compound 279] |
| 152 nM | 1.609 µM | >30 min | 73.6 ug/mL | 49.1 ×10⁻⁶ cm/s | Cc1cc(C(=O)NC2CCN(CCN(C)C)CC2)ccc1-n1c(=O)ccc2cnc3ccc(-c4ccc(Cl)cc4)cc3c21 [Compound 280] |
| 27.4 nM | 2.18 µM | 3 min | >86 ug/mL | 33.4 ×10⁻⁶ cm/s | Cc1cc(C(=O)NCCCN(CCO)CCO)ccc1-n1c(=O)ccc2cnc3ccc(-c4ccc(Cl)cc4)cc3c21 [Compound 281] |
| 71.4 nM | 4.536 µM | 4.1 min | >86 ug/mL | 598 ×10⁻⁶ cm/s | Cc1cc(C(=O)NCCCN2CCN(C)CC2)ccc1-n1c(=O)ccc2cnc3ccc(-c4ccc(Cl)cc4)cc3c21 [Compound 282] |
| 69.1 nM | 15.09 µM | 2.7 min | 70.7 ug/mL | 1180 ×10⁻⁶ cm/s | Cc1cc(C(=O)NCCCN2CCC(C)CC2)ccc1-n1c(=O)ccc2cnc3ccc(-c4ccc(Cl)cc4)cc3c21 [Compound 283] |
| 59.7 nM | 1.506 µM | >30 min | 41.6 ug/mL | 159 ×10⁻⁶ cm/s | O=C(NCCN1CCC1)c1ccc(-n2c(=O)ccc3cnc4ccc(-c5ccc(Cl)cc5)cc4c32)cc1 [Compound 285] |
| 53.7 nM | 11.77 µM | 2.4 min | 35.6 ug/mL | 863 ×10⁻⁶ cm/s | CC1CCN(CCCNC(=O)c2ccc(-n3c(=O)ccc4cnc5ccc(-c6ccc(Cl)cc6)cc5c43)cc2)CC1 [Compound 286] |
| 58.4 nM | 2.083 µM | 4.3 min | <1 ug/mL | 21.7 ×10⁻⁶ cm/s | CCC(=O)NCCNC(=O)c1ccc(-n2c(=O)ccc3cnc4ccc(-c5ccc(Cl)cc5)cc4c32)cc1 [Compound 287] |
| 86.7 nM | 9.216 µM | 1.7 min | <1 ug/mL | 141 ×10⁻⁶ cm/s | Cc1cc(C(=O)NCCCN2CCS(=O)(=O)CC2)ccc1-n1c(=O)ccc2cnc3ccc(-c4ccc(Cl)cc4)cc3c21 [Compound 289] |
| 64.4 nM | 4.806 µM | 3 min | 63.1 ug/mL | 311 ×10⁻⁶ cm/s | CCN(CC)CCCNC(=O)c1ccc(-n2c(=O)ccc3cnc4ccc(-c5ccc(Cl)cc5)cc4c32)c(C)c1 [Compound 290] |
